Reference: ChEMBL document CHEMBL1157539, “Thousands of chemical starting points for antimalarial lead identification” (Nature, 2010)

test system: Plasmodium falciparum; assay: GSK_TCMDC: Inhibition of Plasmodium falciparum 3D7 in whole erythrocytes, using parasite LDH activity as an index of growth.; format: functional, organism-based; conditions: Plasmodium falciparum, 3D7

COc1c(C)[nH]c(C)c(-c2ccc(Oc3cccc(C(F)(F)F)c3)cc2)c1=O and Cc1[nH]c(C)c(-c2ccc(-c3ccccc3F)nc2)c(=O)c1Br are within 1.5-fold of each other in XC50: 314 nM for the first, 401 nM for the second.

First: COc1ccc2nc(C)cc(Nc3ccc(Oc4ccc(Cl)cc4)c(Cl)c3)c2c1
Second: COc1ccc(C2C(C(=O)Nc3ccc(C)cc3Br)c3ccccc3C(=O)N2C)cc1 (stereo not given)
The XC50 of the first is 4.9-fold lower: 191 nM for the first, 941 nM for the second.

CCCCCCN1CCC(CNCc2cccc([N+](=O)[O-])c2)CC1 and O=C(Nc1ccc2ccccc2c1)N1CCC(NCc2cccc([N+](=O)[O-])c2)CC1 are within 1.5-fold of each other in XC50: 720 nM for the first, 855 nM for the second.

Compared with Cc1cc(N2CCCC2)nc(Nc2ccc(NC(=O)C(C)Oc3ccccc3)cc2)n1 (stereo not given), Cc1ccc(Nc2nc(C)cc(NC3CCN(C)CC3)n2)cc1 is 2.3-fold lower in XC50: 1140 nM for the first, 497 nM for the second.

First: COC(=O)c1cc(C(=O)CN(Cc2ccccc2)C(C)C)ccc1O
Second: CN(C)CCNC(=O)[C@H](Cc1ccccc1)NC(=O)c1ccc(O)c(-c2ccc(Cl)c(Cl)c2)c1
The XC50 of the first is 3.9-fold lower: 183 nM for the first, 715 nM for the second.

Cc1ccc(N2CCN(C(=O)c3cccc(-c4cncc5nc(-c6ccco6)n(C)c45)c3)CC2)nc1 and Cc1cnc(C(=O)Nc2cccc(-c3cccc(-c4nc5cc(F)ccc5[nH]4)c3)c2)cn1 are within 1.5-fold of each other in XC50: 596 nM for the first, 771 nM for the second.

Cc1cc(NC2CCCC2)nc(Nc2ccccc2C)n1 and Cc1cc(-c2ccnc(Nc3cccc(C#N)c3)n2)cc(C)c1O are within 1.5-fold of each other in XC50: 1350 nM for the first, 924 nM for the second.

O=C(NCCN1CCC(c2ccncc2)CC1)c1ccc(Nc2nccc(Nc3ccc(Oc4ccccc4)cc3)n2)cc1 and O=C(Nc1ccc(C(=O)Oc2cccc3ccccc23)cc1)N[C@@H](Cc1ccc(O)cc1)C(=O)NC1CCN(Cc2ccc(O)cc2)C1 (stereo not given in full) are within 1.5-fold of each other in XC50: 724 nM for the first, 906 nM for the second.

Compared with Cc1nn(-c2ccccc2)nc1C(=O)N(Cc1ccc(-c2ccc(CNCCc3ccc(S(C)(=O)=O)cc3)cn2)cc1)C(C)CN(C)C (stereo not given), Cc1cccc2nc(-c3cccc(-c4cccc(CNCCc5ccncc5)c4)c3)[nH]c12 is 4.9-fold lower in XC50: 682 nM for the first, 139 nM for the second.

First: CC(CNc1nc(NCC(c2ccccc2)c2ccccc2)c2nc[nH]c2n1)c1ccccc1 (stereo not given)
Second: c1ccc(CN2CCC(NCc3ccccc3-c3cccc(CNCc4ccc5c(c4)OCO5)c3)CC2)cc1
The XC50 of the first is 1.7-fold higher: 948 nM for the first, 573 nM for the second.

Going from N=C(N)NCCCC(=O)NCC(N)=O to CCOC(=O)C(CO)NC(=O)c1ccc([N+](=O)[O-])o1 (stereo not given), the XC50 rises from 165 nM to 289 nM (1.8-fold).

Cc1cc(N)ncc1-c1ccc(NC(=O)Nc2cc(C(F)(F)F)ccc2F)cc1 and CCn1c(-c2nonc2N)nc2c(-c3cccc(NC(=O)Nc4ccccc4Cl)c3)ncc(OCCCN)c21 are within 1.5-fold of each other in XC50: 698 nM for the first, 671 nM for the second.

O=S(=O)(c1ccc2cc[nH]c2c1)N1CCC[C@@H]1CCN1CCC(c2c[nH]c3cnccc23)CC1 and Cc1ccc(NC(=O)c2ccc3ncccc3c2)cc1OC1CCN(CCC(C)C)CC1 are within 1.5-fold of each other in XC50: 1020 nM for the first, 694 nM for the second.

Compared with Fc1ccc2[nH]c(-c3ccc(-c4ccc(CNCC5CCCO5)cc4)cc3)nc2c1 (stereo not given), Cc1cccc2nc(-c3cccc(-c4cccc(NC(=O)CC5NC(=O)c6ccccc65)c4)c3)[nH]c12 (stereo not given) is 2.3-fold higher in XC50: 440 nM for the first, 1030 nM for the second.

COc1ccc(/N=[N+](\[O-])c2ccccc2/[N+]([O-])=N/c2ccc(OC)cc2)cc1 and CCCCOc1ccc(C(O)C(CN2CCCCC2)c2ccccc2)cc1 (stereo not given) are within 1.5-fold of each other in XC50: 987 nM for the first, 893 nM for the second.

COc1cc(-c2cc3cc(Cl)c(Cl)cc3[nH]2)ccc1C(=O)NCCC1CCCN1C (stereo not given) and COC(C(=O)OCCC1CCCN1C)(c1ccccc1)c1ccccc1 (stereo not given) are within 1.5-fold of each other in XC50: 969 nM for the first, 970 nM for the second.

O=C(Nc1cccc(-c2cccc(CN3CCCC3)c2)c1)c1ccc(Cl)cc1 and O=C(Nc1ccc(S(=O)(=O)NCCCN2CCOCC2)cc1)c1cc(-c2ccccc2)[nH]n1 are within 1.5-fold of each other in XC50: 684 nM for the first, 769 nM for the second.

Going from COc1ccc(CN2CCN(C(=O)c3cccs3)CC2)c(O)c1 to CCCNC[C@@H](O)[C@H](Cc1ccccc1)NC(=O)c1cc2c3c(c1)c(CC)cn3CCS(=O)(=O)N2C, the XC50 falls from 838 nM to 101 nM (8.3-fold).

CCn1c(-c2nonc2N)nc2c(-c3cccc(NC(=O)Nc4cccc(OC)c4)c3)ncc(OCCCN)c21 and O=C(Nc1cccnc1)c1cc(C(=O)Nc2cccnc2)cc([N+](=O)[O-])c1 are within 1.5-fold of each other in XC50: 769 nM for the first, 1120 nM for the second.

Compared with Cc1ccc2oc3cc(-c4nnn[nH]4)ccc3c(=O)c2c1, O=C(CCC1CCCCC1=O)c1ccccc1 (stereo not given) is 8.6-fold higher in XC50: 89.4 nM for the first, 766 nM for the second.
